Assay results from the NIST ThermoML archive (doi:10.1021/je4005245).

Settings: 101.33 kPa, Liquid, Vibrating wire viscometry

CC(C)CCCC(C)CCCC(C)CCCCC(C)CCCC(C)CCCC(C)C (configuration not stated) [2,6,10,15,19,23-hexamethyltetracosane]
Settings	viscosity [mPa·s]
283.77 K	60.2
288.47 K	46.1
293.29 K	35.59
298.12 K	27.95
303.07 K	22.45
308.09 K	18.3
313.13 K	15
318.17 K	12.5
323.19 K	10.57
328.26 K	8.99
333.2 K	7.8
338.18 K	6.81
343.07 K	6
348.08 K	5.32
353.08 K	4.72
358.13 K	4.2
362.98 K	3.78

CCCCC(CC)COC(=O)CCCCCCCCC(=O)OCC(CC)CCCC (configuration not stated) [bis(2-ethylhexyl) decanedioate]
Settings	viscosity [mPa·s]
284.06 K	31.95
288.71 K	25.84
293.37 K	21.14
298.26 K	17.42
303.1 K	14.55
307.9 K	12.37
313.24 K	10.4
318.26 K	9.023
323.17 K	7.865
328.26 K	6.878
333.2 K	6.067
338.16 K	5.435
342.81 K	4.883
348.07 K	4.38
352.98 K	3.987
358.09 K	3.626

CCCCC(CC)COC(=O)c1ccccc1C(=O)OCC(CC)CCCC (configuration not stated) [bis(2-ethylhexyl) 1,2-benzenedicarboxylate]
Settings	viscosity [mPa·s]
288.53 K	110.7
293.38 K	78.73
298.29 K	57.94
303.33 K	43.27
308.23 K	33.17
313.18 K	26.13
317.99 K	21.08
323.02 K	16.96
328.12 K	13.91
333.19 K	11.62
337.71 K	9.903
343.53 K	8.268
348.48 K	7.158
353.68 K	6.199
